From patent US8987258B2 (priority 2008, dated 2015)

Biological target: T1, SIRT1 (Homo sapiens, UniProt Q96EB6)
T1 sequence (Q96EB6 1-747): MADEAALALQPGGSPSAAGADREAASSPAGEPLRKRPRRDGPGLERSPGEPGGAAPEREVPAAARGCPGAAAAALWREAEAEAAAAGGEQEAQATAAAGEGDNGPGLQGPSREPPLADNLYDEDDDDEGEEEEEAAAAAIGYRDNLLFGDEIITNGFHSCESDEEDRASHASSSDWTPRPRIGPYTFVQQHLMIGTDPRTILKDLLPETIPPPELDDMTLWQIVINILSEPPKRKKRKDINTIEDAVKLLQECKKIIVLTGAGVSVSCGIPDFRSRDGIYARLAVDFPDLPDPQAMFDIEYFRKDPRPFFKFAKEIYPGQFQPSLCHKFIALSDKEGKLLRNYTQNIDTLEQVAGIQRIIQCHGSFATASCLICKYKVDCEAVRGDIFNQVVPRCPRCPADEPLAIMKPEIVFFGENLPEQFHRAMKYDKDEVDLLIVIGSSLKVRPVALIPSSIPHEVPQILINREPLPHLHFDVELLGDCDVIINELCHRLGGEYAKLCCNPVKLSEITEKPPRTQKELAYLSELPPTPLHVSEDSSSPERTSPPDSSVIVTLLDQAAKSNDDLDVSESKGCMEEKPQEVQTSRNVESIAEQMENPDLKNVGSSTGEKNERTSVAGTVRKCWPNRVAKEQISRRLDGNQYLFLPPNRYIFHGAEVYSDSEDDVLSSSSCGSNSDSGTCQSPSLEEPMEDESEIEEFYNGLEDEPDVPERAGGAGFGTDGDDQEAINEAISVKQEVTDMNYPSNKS
Test: Mass spectrometry based SIRT1 deacetylase activation assay
Type: biochemical
Details: for EC1.5 μM: 0.5 μM peptide substrate, 120 μM βNAD+, 10 nM SIRT1, 25 min, 25° C.; for Emax: 25 min, mass spectrometry assay, read-out: % Fold Act. (percent maximum fold activation)
Excerpt: A mass spectrometry based assay was used to identify modulators of SIRT1 activity. The mass spectrometry based assay utilizes a peptide having 20 amino acid residues as follows: Ac-EE-K(biotin)-GQSTSSHSK(Ac)NleSTEG-K(5TMR)-EE-NH2 (SEQ ID NO: 1) wherein K(Ac) is an acetylated lysine residue and Nle is a norleucine. The peptide is labeled with the fluorophore 5TMR (excitation 540 nm/emission 580 nm) at the C-terminus. The sequence of the peptide substrate is based on p53 with several modifications. In addition, the methionine residue naturally present in the sequence was replaced with the norleucine because the methionine may be susceptible to oxidation during synthesis and purification.
The mass spectrometry assay is conducted as follows: 0.5 μM peptide substrate and 120 μM βNAD^+ is incubated with 10 nM SIRT1 for 25 minutes at 25° C. in a reaction buffer (50 mM Tris-acetate pH 8, 137 mM NaCl, 2.7 mM KCl, 1 mM MgCl2, 5 mM DTT, 0.05% BSA). Test compounds may be added to the reaction as described above. […] After the 25 minute incubation with SIRT1, 10 μL of 10% formic acid is added to stop the reaction. Reactions are sealed and frozen for later mass spec analysis. Determination of the mass of the substrate peptide allows for precise determination of the degree of acetylation (i.e. starting material) as compared to deacetylated peptide (product).
A control for inhibition of sirtuin activity is conducted by adding 1 μL of 500 mM nicotinamide as a negative control at the start of the reaction (e.g., permits determination of maximum sirtuin inhibition). A control for activation of sirtuin activity is conducted using 10 nM of sirtuin protein, with 1 μL of DMSO in place of compound, to determine the amount of deacetylation of the substrate at a given timepoint within the linear range of the assay. This timepoint is the same as that used for test compounds and, within the linear range, the endpoint represents a change in velocity.
For the above assay, SIRT1 protein was expressed and purified as follows. […] The protein was expressed by induction with 1 mM IPTG as an N-terminal His-tag fusion protein at 18° C. overnight and harvested at 30,000×g. Cells were lysed with lysozyme in lysis buffer (50 mM Tris-HCl, 2 mM Tris[2-carboxyethyl]phosphine (TCEP), 10 μM ZnCl2, 200 mM NaCl) and further treated with sonication for 10 min for complete lysis. The protein was purified over a Ni-NTA column (Amersham) and fractions containing pure protein were pooled, concentrated and run over a sizing column (Sephadex S200 26/60 global). The peak containing soluble protein was collected and run on an Ion-exchange column (MonoQ). Gradient elution (200 mM-500 mM NaCl) yielded pure protein. This protein was concentrated and dialyzed against dialysis buffer (20 mM Tris-HCl, 2 mM TCEP) overnight. The protein was aliquoted and frozen at −80° C. until further use.

Compound	EC1.5 μM	Emax [%]
O=C(Nc1cccc2c(=O)cc(-c3cnccc3C(F)(F)F)oc12)c1cscn1 [Compound 309]	B (EC1.5 1-25 μM)	> 200
O=C(Nc1cccc2c(=O)cc(-c3cccc(F)c3F)oc12)c1cscn1 [Compound 289]	C (EC1.5>25 μM)	< 200
O=C(Nc1cccc2c(=O)cc(-c3cccc(Br)c3)oc12)c1cscn1 [Compound 230]		< 200
Cc1cnc(NC(=O)c2cccc3c(=O)cc(-c4cccc(F)c4F)oc23)s1 [Compound 295]	C (EC1.5>25 μM)	< 200
Cc1ccccc1-c1cc(=O)c2cccc(NC(=O)c3cnccn3)c2o1 [Compound 273, N-(4-oxo-2-o-tolyl-4H-chromen-8-yl)pyrazine-2-carboxamide]	A (EC1-5<1.0)	> 200
Cc1cnc(NC(=O)c2cccc3c(=O)cc(-c4ccccc4OC(F)F)oc23)s1 [Compound 294]	B (EC1.5 1-25 μM)	< 200
Cn1nccc1C(=O)Nc1cccc2c(=O)cc(-c3ccccc3Cl)oc12 [Compound 337]	A (EC1-5<1.0)	> 200
O=C(Nc1nccs1)c1cccc2c(=O)cc(-c3cccc(OC(F)(F)F)c3)oc12 [Compound 210]	C (EC1.5>25 μM)	< 200
CS(=O)(=O)c1cccc(-c2cc(=O)c3cccc(NC(=O)c4cccnc4)c3o2)c1 [Compound 242]	C (EC1.5>25 μM)	< 200
O=C(Nc1cccc2c(=O)cc(-c3ccccc3C(F)(F)F)oc12)c1cccnc1OCC(O)CO (stereo not shown) [Compound 321]	B (EC1.5 1-25 μM)	> 200
O=C(Nc1cccc2c(=O)cc(-c3ccccc3C(F)(F)F)oc12)c1ccccn1 [Compound 251]	A (EC1-5<1.0)	> 200
O=C(Nc1cccc2c(=O)cc(-c3cccc(C(F)(F)F)c3)oc12)c1ccc(OC[C@@H](O)CO)nc1 [Compound 247]	C (EC1.5>25 μM)	< 200
Cn1ccc(C(=O)Nc2cccc3c(=O)cc(-c4ccccc4C(F)(F)F)oc23)n1 [Compound 259]	B (EC1.5 1-25 μM)	> 200
Cc1cnc(NC(=O)c2cccc3c(=O)cc(-c4cnccc4C(F)(F)F)oc23)s1 [Compound 310]	B (EC1.5 1-25 μM)	< 200
Cn1cncc1C(=O)Nc1cccc2c(=O)cc(-c3ccccc3C(F)(F)F)oc12 [Compound 277]	B (EC1.5 1-25 μM)	> 200
O=C(Nc1cccc2c(=O)cc(-c3ccccc3N3CCOCC3)oc12)c1cscn1 [Compound 240]	B (EC1.5 1-25 μM)	> 200
O=C(Nc1cccc2c(=O)cc(-c3cccc(N4CCOCC4)c3)oc12)c1ccccn1 [Compound 213]	C (EC1.5>25 μM)	< 200
CN1CCCC1C(=O)Nc1cccc2c(=O)cc(-c3ccccc3C(F)(F)F)oc12 (stereo not shown) [Compound 317]	B (EC1.5 1-25 μM)	< 200
Cc1cnc(NC(=O)c2cccc3c(=O)cc(-c4cccnc4C(F)(F)F)oc23)s1 [Compound 305, N-(5-methylthiazol-2-yl)-4-oxo-2-(2-(trifluoromethyl)pyridin-3-yl)-4H-chromene-8-carboxamide]	C (EC1.5>25 μM)	< 200
O=C(Nc1cccc2c(=O)cc(-c3ccccc3Cl)oc12)c1cccc(OCC(O)CO)n1 (stereo not shown) [Compound 334]	A (EC1-5<1.0)	> 200

Compound	EC1.5 μM	Emax [%]
O=C(Nc1cccc2c(=O)cc(-c3ccccc3C(F)F)oc12)c1cccc(OCC(O)CO)n1 (stereo not shown) [Compound 338]	A (EC1-5<1.0)	> 200
O=C(Nc1cccc2c(=O)cc(-c3c(F)cccc3F)oc12)c1cscn1 [Compound 291]	B (EC1.5 1-25 μM)	< 200
CS(=O)(=O)c1ccccc1-c1cc(=O)c2cccc(NC(=O)c3cnccn3)c2o1 [Compound 265]	C (EC1.5>25 μM)	< 200
O=C(Nc1cccc2c(=O)cc(-c3cccc(C(F)(F)F)c3)oc12)c1cscn1 [Compound 204, N-(4-oxo-2-(3-(trifluoromethyl)phenyl)-4H-chromen-8-yl)thiazole-4-carboxamide]	B (EC1.5 1-25 μM)	< 200
O=C(Nc1cccc2c(=O)cc(-c3ccccc3Cl)oc12)c1cscn1 [Compound 281]	A (EC1-5<1.0)	> 200
Cc1cnc(NC(=O)c2cccc3c(=O)cc(-c4ccccc4OC(F)(F)F)oc23)s1 [Compound 275]	C (EC1.5>25 μM)	< 200
O=C(Nc1cccc2c(=O)cc(-c3ccccc3)oc12)c1cnccn1 [Compound 201]	C (EC1.5>25 μM)	< 200
CS(=O)(=O)c1cccc(-c2cc(=O)c3cccc(NC(=O)c4cscn4)c3o2)c1 [Compound 222]	C (EC1.5>25 μM)	< 200
O=C(Nc1cccc2c(=O)cc(-c3cccc(OC(F)(F)F)c3)oc12)c1cscn1 [Compound 202]	C (EC1.5>25 μM)	< 200
O=C(Nc1cccc2c(=O)cc(-c3c(F)cccc3F)oc12)c1cnccn1 [Compound 290]	C (EC1.5>25 μM)	< 200
O=C(Nc1cccc2c(=O)cc(-c3ccccc3C(F)(F)F)oc12)c1ncccn1 [Compound 252]	A (EC1-5<1.0)	> 200
CS(=O)(=O)c1ccc(-c2cc(=O)c3cccc(NC(=O)c4ccccn4)c3o2)cc1 [Compound 249]	C (EC1.5>25 μM)	< 200
O=C(Nc1cccnc1)c1cccc2c(=O)cc(-c3cccc(C(F)(F)F)c3)oc12 [Compound 224, 4-oxo-N-(pyridin-3-yl)-2-(3-(trifluoromethyl)phenyl)-4H-chromene-8-carboxamide]	C (EC1.5>25 μM)	< 200
O=C(Nc1cccc2c(=O)cc(-c3ccccc3C(F)(F)F)oc12)c1cccc(N2CCOCC2)n1 [Compound 322]	A (EC1-5<1.0)	> 200
O=C(Nc1cccc2c(=O)cc(-c3ccccc3C(F)F)oc12)c1cccc(CN2CCOCC2)n1 [Compound 339]	A (EC1-5<1.0)	> 200
O=C(Nc1cccc2c(=O)cc(-c3c(Cl)cccc3Cl)oc12)c1cscn1 [Compound 303]	B (EC1.5 1-25 μM)	> 200
O=C(Nc1cccc2c(=O)cc(-c3ccccc3Cl)oc12)c1cccc(CN2CCOCC2)c1 [Compound 330]	B (EC1.5 1-25 μM)	> 200
O=C(Nc1cccc2c(=O)cc(-c3ccccc3C(F)(F)F)oc12)c1cccc(CN2CCOCC2)n1 [Compound 315]	A (EC1-5<1.0)	> 200
O=C(Nc1cccc2c(=O)cc(-c3cc(F)ccc3F)oc12)c1cnccn1 [Compound 292]	C (EC1.5>25 μM)	< 200
COc1ccccc1-c1cc(=O)c2cccc(NC(=O)c3cscn3)c2o1 [Compound 255]	C (EC1.5>25 μM)	< 200
